Measured values published in patent US12649750B2, “Macrocyclic compounds, compositions, and methods of using thereof” (Sionna Therapeutics Inc., priority 2022, dated 2026).

How the values were obtained:
NBD1 = biological target: T1, NBD1 (Homo sapiens, UniProt P13569); assay: Aggregation analysis using differential static light scattering (DSLS), thermal stability of NBD1 (ΔTagg); type: binding; conditions: ΔTagg versus DMSO control, NBD1 0.2 mg/ml
T1 construct: Purified recombinant NBD1 was produced using previously described methods; made in house
T1 sequence (P13569 423-646 limits assumed): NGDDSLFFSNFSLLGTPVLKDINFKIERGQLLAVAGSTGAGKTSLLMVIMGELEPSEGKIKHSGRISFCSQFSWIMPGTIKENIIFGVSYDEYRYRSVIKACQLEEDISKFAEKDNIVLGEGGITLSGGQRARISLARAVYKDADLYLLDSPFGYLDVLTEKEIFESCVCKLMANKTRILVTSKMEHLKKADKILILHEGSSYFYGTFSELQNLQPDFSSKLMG
Procedure, shortened: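 Stabilisation is measured as the shift in aggregation onset of recombinant NBD1 (0.2 mg/ml, 2 mM ATP, 5 mM MgCl2, pH7.6) exposed to compound. Images are taken every 0.5° C. while heating at 1° C. per minute, and the inflection-point Tagg is corrected by the DMSO mean.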

CFTR = biological target: T2, CFTR (Homo sapiens, UniProt P13569, DEL508-508); assay: TECC24 AUC fold over DMSO @10 μM, CFTR-mediated transepithelial chloride transport in CF-HBE cells; type: cell-based; conditions: test agent AUC divided by DMSO vehicle AUC, primary CF-HBE cells, ΔF508 homozygous donor, 48 hours incubation
T2 construct: Primary human bronchial epithelial cells from a ΔF508 homozygous CF donor; host or cells: primary human bronchial epithelial cells (CF-HBE), ΔF508 homozygous donor
T2 sequence (P13569 with tags, fused parts or gaps DEL508-508): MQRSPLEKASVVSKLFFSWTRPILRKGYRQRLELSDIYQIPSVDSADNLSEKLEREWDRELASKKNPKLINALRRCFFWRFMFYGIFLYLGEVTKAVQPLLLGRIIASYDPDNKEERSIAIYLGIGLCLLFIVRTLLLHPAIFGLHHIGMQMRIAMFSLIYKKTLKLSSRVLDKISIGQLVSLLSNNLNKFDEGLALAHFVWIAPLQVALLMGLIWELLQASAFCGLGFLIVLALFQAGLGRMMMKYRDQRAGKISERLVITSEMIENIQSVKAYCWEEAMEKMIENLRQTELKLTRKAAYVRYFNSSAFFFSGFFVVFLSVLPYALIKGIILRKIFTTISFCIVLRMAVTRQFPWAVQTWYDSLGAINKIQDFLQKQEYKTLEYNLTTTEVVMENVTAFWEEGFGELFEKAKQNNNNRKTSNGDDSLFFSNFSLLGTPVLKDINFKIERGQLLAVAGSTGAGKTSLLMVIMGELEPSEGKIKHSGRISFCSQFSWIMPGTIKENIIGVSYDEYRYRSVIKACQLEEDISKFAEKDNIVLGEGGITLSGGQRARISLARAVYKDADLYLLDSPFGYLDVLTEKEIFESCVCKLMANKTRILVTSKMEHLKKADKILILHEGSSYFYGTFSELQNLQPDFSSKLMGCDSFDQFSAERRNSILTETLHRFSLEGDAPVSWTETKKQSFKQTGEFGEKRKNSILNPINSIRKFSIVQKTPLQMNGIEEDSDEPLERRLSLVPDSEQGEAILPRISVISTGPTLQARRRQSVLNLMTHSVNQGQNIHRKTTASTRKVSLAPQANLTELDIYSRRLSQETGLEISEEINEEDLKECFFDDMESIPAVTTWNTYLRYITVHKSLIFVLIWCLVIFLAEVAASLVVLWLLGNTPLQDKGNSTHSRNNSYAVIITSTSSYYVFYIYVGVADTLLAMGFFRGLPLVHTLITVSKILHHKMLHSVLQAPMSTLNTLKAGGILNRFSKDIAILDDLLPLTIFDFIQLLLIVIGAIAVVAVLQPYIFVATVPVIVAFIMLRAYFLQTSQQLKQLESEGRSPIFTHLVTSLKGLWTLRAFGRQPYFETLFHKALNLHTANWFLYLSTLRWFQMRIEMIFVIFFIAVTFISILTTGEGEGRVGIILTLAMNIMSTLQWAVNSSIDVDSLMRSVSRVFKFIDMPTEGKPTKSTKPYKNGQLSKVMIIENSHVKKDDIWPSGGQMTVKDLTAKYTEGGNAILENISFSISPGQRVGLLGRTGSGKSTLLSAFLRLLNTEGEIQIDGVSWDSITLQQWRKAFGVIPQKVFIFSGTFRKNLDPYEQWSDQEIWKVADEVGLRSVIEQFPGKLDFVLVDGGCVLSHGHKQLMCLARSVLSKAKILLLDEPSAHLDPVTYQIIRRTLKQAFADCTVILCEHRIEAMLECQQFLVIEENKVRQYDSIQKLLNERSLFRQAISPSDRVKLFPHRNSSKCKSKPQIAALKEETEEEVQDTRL
Procedure, shortened: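 ΔF508-homozygous primary bronchial epithelial cells incubated 48 h at 36.5° C with compound (10 μM) in IL-13-containing medium, then TECC24 current-clamp recording in pH 7.4 Hepes saline with benzamil 10 μM, forskolin 10 μM, then CFTR inhibitor-172 20 μM. Equivalent Cl− current AUC between forskolin and inhibitor, expressed as fold over DMSO.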

C[C@@H](Cc1cccc([C@@]2(C)CCCC(C)(C)CS(=O)(=O)CCc3c(c(F)cc4[nH]ccc34)Sc3ccnc(c3)-c3nc2nn3C)c1F)C(=O)O [Compound 277, (2S)-3-[2-fluoro-3-[(6R)-22-fluoro-3,6,10,10-tetramethyl-12,12-dioxo-12λ6,24-dithia-3,4,19,28,30-pentazapentacyclo[23.3.1.12,5.015,23.016,20]triaconta-1(29),2(30),4,15,17,20,22,25,27-nonaen-6-yl]phenyl]-2-methyl-propanoic acid]
DSLS 3D (100 μM ΔT) (NBD1): C (a value greater than 10 °C and less than or equal to 25 °C is marked “C”) | TECC (AUC, 10 μM) (CFTR): A (a TECC value less than 12 is marked “A”)

Cn1nc2nc1-c1cc(ccn1)[S+]([O-])c1c(F)cc3[nH]ccc3c1CCS(=O)(=O)CC(C)(C)CCC[C@]2(C)c1cccc(CC(C)(C)C(=O)O)c1 (stereo partly drawn) [Compound 278, 3-[3-[(6R)-22-fluoro-3,6,10,10-tetramethyl-12,12,24-trioxo-12λ6,24λ4-dithia-3,4,19,28,30-pentazapentacyclo[23.3.1.12,5.015,23.016,20]triaconta-1(29),2(30),4,15,17,20,22,25,27-nonaen-6-yl]phenyl]-2,2-dimethyl-propanoic Acid]
DSLS 3D (100 μM ΔT) (NBD1): C (a value greater than 10 °C and less than or equal to 25 °C is marked “C”) | TECC (AUC, 10 μM) (CFTR): C (a value between 20 and 80 is marked “C”)

Cn1nc2nc1-c1cc(ccc1F)Sc1c(F)c(F)c3[nH]ccc3c1CCS(=O)(=O)CC(C)(C)CCC[C@]2(C)c1cccc(CC(C)(C)C(=O)O)c1 [Compound 279, 2,2-Dimethyl-3-[3-[(6R)-21,22,28-trifluoro-3,6,10,10-tetramethyl-12,12-dioxo-12λ6,24-dithia-3,4,19,30-tetrazapentacyclo[23.3.1.12,5.015,23.016,20]triaconta-1(29),2(30),4,15,17,20,22,25,27-nonaen-6-yl]phenyl]propanoic Acid]
DSLS 3D (100 μM ΔT) (NBD1): C (a value greater than 10 °C and less than or equal to 25 °C is marked “C”) | TECC (AUC, 10 μM) (CFTR): C (a value between 20 and 80 is marked “C”)

Cn1nc2nc1-c1cc(ccc1F)[S+]([O-])c1c(F)c(F)c3[nH]ccc3c1CCS(=O)(=O)CC(C)(C)CCC[C@]2(C)c1cccc(CC(C)(C)C(=O)O)c1 (stereo partly drawn) [Compound 280, 2,2-dimethyl-3-[3-[(6R)-21,22,28-trifluoro-3,6,10,10-tetramethyl-12,12,24-trioxo-12λ6,24λ4-dithia-3,4,19,30-tetrazapentacyclo[23.3.1.12,5.015,23.016,20]triaconta-1(29),2(30),4,15,17,20,22,25,27-nonaen-6-yl]phenyl]propanoic Acid]
DSLS 3D (100 μM ΔT) (NBD1): C (a value greater than 10 °C and less than or equal to 25 °C is marked “C”) | TECC (AUC, 10 μM) (CFTR): C (a value between 20 and 80 is marked “C”)

Cn1nc2nc1-c1cc(ccn1)Sc1c(F)c(F)c3[nH]ccc3c1CCS(=O)(=O)CC(C)(C)CCC[C@]2(C)c1cccc(C[C@@H](O)CO)c1 [Compound 282, (2R)-3-[3-[(6R)-21,22-difluoro-3,6,10,10-tetramethyl-12,12-dioxo-12λ6,24-dithia-3,4,19,28,30-pentazapentacyclo[23.3.1.12,5.015,23.016,20]triaconta-1(29),2(30),4,15,17,20,22,25,27-nonaen-6-yl]phenyl]propane-1,2-diol]
DSLS 3D (100 μM ΔT) (NBD1): C (a value greater than 10 °C and less than or equal to 25 °C is marked “C”) | TECC (AUC, 10 μM) (CFTR): C (a value between 20 and 80 is marked “C”)

C[C@@H](Cc1cccc([C@@]2(C)CCCC(C)(C)CS(=O)(=O)CCc3c(c(F)cc4[nH]ccc34)[S+]([O-])c3ccnc(c3)-c3nc2nn3C)c1F)C(=O)O (stereo partly drawn) [Compound 283, (2S)-3-[2-fluoro-3-[(6R)-22-fluoro-3,6,10,10-tetramethyl-12,12,24-trioxo-12λ6,24λ4-dithia-3,4,19,28,30-pentazapentacyclo[23.3.1.12,5.015,23.016,20]triaconta-1(29),2(30),4,15,17,20,22,25,27-nonaen-6-yl]phenyl]-2-methyl-propanoic Acid]
DSLS 3D (100 μM ΔT) (NBD1): C (a value greater than 10 °C and less than or equal to 25 °C is marked “C”) | TECC (AUC, 10 μM) (CFTR): C (a value between 20 and 80 is marked “C”)

Cn1nc2nc1-c1cc(ccc1F)[S+]([O-])c1c(F)cc3[nH]ccc3c1CCS(=O)(=O)CC(C)(C)CCC[C@]2(C)c1cccc(C[C@H](O)CO)c1 (stereo partly drawn) [Compound 286, (2S)-3-[3-[(6R)-22,28-difluoro-3,6,10,10-tetramethyl-12,12,24-trioxo-12λ6,24λ4-dithia-3,4,19,30-tetrazapentacyclo[23.3.1.12,5.015,23.016,20]triaconta-1(29),2(30),4,15,17,20,22,25,27-nonaen-6-yl]phenyl]propane-1,2-diol]
DSLS 3D (100 μM ΔT) (NBD1): C (a value greater than 10 °C and less than or equal to 25 °C is marked “C”) | TECC (AUC, 10 μM) (CFTR): C (a value between 20 and 80 is marked “C”)

Cn1nc2nc1-c1cc(ccc1F)Sc1c(F)cc3[nH]ccc3c1CCS(=O)(=O)CC(C)(C)CCC[C@]2(C)c1cccc(C[C@H](O)CO)c1 [Compound 287, (2S)-3-[3-[(6R)-22,28-difluoro-3,6,10,10-tetramethyl-12,12-dioxo-12λ6,24-dithia-3,4,19,30-tetrazapentacyclo[23.3.1.12,5.015,23.016,20]triaconta-1(29),2(30),4,15,17,20,22,25,27-nonaen-6-yl]phenyl]propane-1,2-diol]
DSLS 3D (100 μM ΔT) (NBD1): C (a value greater than 10 °C and less than or equal to 25 °C is marked “C”) | TECC (AUC, 10 μM) (CFTR): C (a value between 20 and 80 is marked “C”)

Cn1nc2nc1-c1cc(ccc1F)Oc1c(F)cc3[nH]ccc3c1CCS(=O)(=O)CC(C)(C)CCC[C@]2(C)c1cccc(CC2(C(=O)O)CC2)c1 [Compound 288, 1-[[3-[(6R)-22,28-difluoro-3,6,10,10-tetramethyl-12,12-dioxo-24-oxa-12λ6-thia-3,4,19,30-tetrazapentacyclo[23.3.1.12,5.015,23.016,20]triaconta-1(29),2(30),4,15,17,20,22,25,27-nonaen-6-yl]phenyl]methyl]cyclopropanecarboxylic Acid]
DSLS 3D (100 μM ΔT) (NBD1): C (a value greater than 10 °C and less than or equal to 25 °C is marked “C”) | TECC (AUC, 10 μM) (CFTR): C (a value between 20 and 80 is marked “C”)

Cn1nc2nc1-c1cc(ccc1F)Oc1c(F)cc3[nH]ccc3c1CCS(=O)(=O)CC(C)(C)CCC[C@]2(C)c1cccc(CC(C)(C)C(=O)O)c1 [Compound 289, 3-[3-[(6R)-22,28-difluoro-3,6,10,10-tetramethyl-12,12-dioxo-24-oxa-12λ6-thia-3,4,19,30-tetrazapentacyclo[23.3.1.12,5.015,23.016,20]triaconta-1(29),2(30),4,15,17,20,22,25,27-nonaen-6-yl]phenyl]-2,2-dimethyl-propanoic Acid]
DSLS 3D (100 μM ΔT) (NBD1): C (a value greater than 10 °C and less than or equal to 25 °C is marked “C”) | TECC (AUC, 10 μM) (CFTR): C (a value between 20 and 80 is marked “C”)

Cn1nc2nc1-c1cc(ccn1)Oc1c(F)cc3[nH]ccc3c1CCS(=O)(=O)CC(C)(C)CCC[C@]2(C)c1cccc(CC2(C(=O)O)CC2)c1 [Compound 290, 1-[[3-[(6R)-22-fluoro-3,6,10,10-tetramethyl-12,12-dioxo-24-oxa-12λ6-thia-3,4,19,28,30-pentazapentacyclo[23.3.1.12,5.015,23.016,20]triaconta-1(29),2(30),4,15,17,20,22,25,27-nonaen-6-yl]phenyl]methyl]cyclopropanecarboxylic Acid]
DSLS 3D (100 μM ΔT) (NBD1): C (a value greater than 10 °C and less than or equal to 25 °C is marked “C”) | TECC (AUC, 10 μM) (CFTR): C (a value between 20 and 80 is marked “C”)
